Results on 38 compounds are retold here after US20120058997A1, “IMIDAZO[1,2-B]PYRIDAZINE AND PYRAZOLO[1,5-A]PYRIMIDINE DERIVATIVES AND THEIR USE AS PROTEIN KINASE INHIBITORS” (SuperGen, Inc., priority 2006, published 2012).

SMILES strings stand for the structures. pIC50: −log10 of the molar value.

By IC50 is commonly meant the concentration needed to halve the response being measured. One may read the pIC50 as −log10 of the IC50, conventionally taken in molar units.

Pim-1 kinase, sequence (P11309 whole entry): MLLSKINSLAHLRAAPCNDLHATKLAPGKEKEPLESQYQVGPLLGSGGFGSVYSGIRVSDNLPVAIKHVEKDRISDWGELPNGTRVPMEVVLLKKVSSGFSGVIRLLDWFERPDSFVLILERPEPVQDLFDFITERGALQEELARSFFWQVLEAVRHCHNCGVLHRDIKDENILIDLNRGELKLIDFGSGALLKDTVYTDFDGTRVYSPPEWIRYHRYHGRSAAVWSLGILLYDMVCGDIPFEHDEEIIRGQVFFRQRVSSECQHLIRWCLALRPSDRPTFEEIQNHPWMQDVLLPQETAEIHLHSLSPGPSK

One assay has as its target Pim-1 kinase (Homo sapiens, UniProt P11309). Nature of the assay: Promega Kinase-Glo Pim-1 kinase inhibition assay.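 Also: in vitro Pim-1 reaction run 2 h at 30 °C, then leftover ATP measured by luciferase luminescence, where signal falls as kinase activity rises.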 The class given is biochemical. To be noted: Table VIII (results); values in nM; read-out: IC50(Kinase). Background: Kinase-Glo measures the ATP left after a reaction by luminescence.
For the compound `CC(C)N1CCC(CNc2ccc3ncc(-c4cc(OC(F)(F)F)ccc4O)n3n2)CC1` [Compound 7-49, N-((1-isopropylpiperidin-4-yl)methyl)-3-(2-hydroxy-5-(trifluoromethoxy)phenyl)-imidazo[1,2-b]pyridazin-6-amine], the IC50 was determined as 310 nM.

Staying with this assay, now noted: Table X; Kinase-Glo; read-out: IC50 on Pim1.
On to `CC(C)(O)CCNc1ccc2ncc(-c3cccc(OC(F)(F)F)c3)n2n1` [Compound 8-3, 2-Methyl-4-((3-(3-(trifluoromethoxy)phenyl)imidazo[1,2-b]pyridazin-6-yl)amino)butan-2-ol], for which the pIC50 is 7.00 to 8.00. The same measure, in the same setting: under `O[C@H]1CC[C@H](Oc2ccc3ncc(-c4cccc(OC(F)(F)F)c4)n3n2)CC1` [Compound 8-4, 4-((3-(3-(Trifluoromethoxy)phenyl)imidazo[1,2-b]pyridazin-6-yl)oxy)-trans-cyclohexanol] stands > 8.00; under `O[C@@H]1CC[C@@H](Nc2ccc3ncc(-c4cccc(OC(F)(F)F)c4)n3n2)C1` [Compound 8-5, (1R,3R)3-((3-(3-(Trifluoromethoxy)phenyl)imidazo[1,2-b]pyridazin-6-yl)amino)cyclopentanol], 7.00 to 8.00. On the same count and under the same terms, under `CC(C)(O)CNc1ccc2ncc(-c3cccc(OC(F)(F)F)c3)n2n1` [Compound 8-6, 2-Methyl-1-((3-(3-(trifluoromethoxy)phenyl)imidazo[1,2-b]pyridazin-6-yl)amino)propan-2-ol] stands 7.00 to 8.00; under `O[C@H]1C[C@H](CNc2ccc3ncc(-c4cccc(OC(F)(F)F)c4)n3n2)C1` [Compound 8-7, 3-(((3-(3-(Trifluoromethoxy)phenyl)imidazo[1,2-b]pyridazin-6-yl)amino)methyl)-trans-cyclobutanol], 7.00 to 8.00; under `N[C@H]1CC[C@H](Nc2ccc3ncc(-c4cccc(OC(F)(F)F)c4)n3n2)CC1` [Compound 8-8, (3-(3-(Trifluoromethoxy)phenyl)imidazo[1,2-b]pyridazin-6-yl)cyclohexane-trans-1,4-diamine], > 8.00.

Regarding `C[C@]1(O)CC[C@H](Nc2ccc3ncc(-c4cccc(OC(F)(F)F)c4)n3n2)CC1` [Compound 8-9, 1-Methyl-4-((3-(3-(trifluoromethoxy)phenyl)imidazo[1,2-b]pyridazin-6-yl)amino)-trans-cyclohexanol], the pIC50 was 7.00 to 8.00. On the same count and under the same terms, under `CC(C)(O)[C@H]1CC[C@H](Nc2ccc3ncc(-c4cccc(OC(F)(F)F)c4)n3n2)CC1` [Compound 8-10] stands > 8.00; under `O=S1(=O)CCC(CNc2ccc3ncc(-c4cccc(OC(F)(F)F)c4)n3n2)CC1` [Compound 8-13, 4-(((3-(3-(Trifluoromethoxy)phenyl)imidazo[1,2-b]pyridazin-6-yl)amino)methyl)tetrahydro-2H-thiopyran 1,1-dioxide], 6.00 to 7.00; under `O=S1(=O)CCC(Nc2ccc3ncc(-c4cccc(OC(F)(F)F)c4)n3n2)CC1` [Compound 8-14, 4-((3-(3-(Trifluoromethoxy)phenyl)imidazo[1,2-b]pyridazin-6-yl)amino)tetrahydro-2H-thiopyran 1,1-dioxide], 5.30 to 6.00.

As for `O=S1(=O)CCN(c2ccc3ncc(-c4cccc(OC(F)(F)F)c4)n3n2)CC1` [Compound 8-15, 4-(3-(3-(Trifluoromethoxy)phenyl)imidazo[1,2-b]pyridazin-6-yl)thiomorpholine 1,1-dioxide], the pIC50 is 5.30 to 6.00. Regarding `CC(C)O[C@H]1CC[C@H](Nc2ccc3ncc(-c4cccc(OC(F)(F)F)c4)n3n2)CC1` [Compound 8-16, 4-(trans-Isopropoxycyclohexyl)-3-(3-(trifluoromethoxy)phenyl)imidazo[1,2-b]pyridazin-6-amine], the negative-log IC50 (pIC50) was 6.00 to 7.00. Consider `FC1(F)CCC(CNc2ccc3ncc(-c4cccc(OC(F)(F)F)c4)n3n2)CC1` [Compound 8-17, N-((4,4-difluorocyclohexyl)methyl)-3-(3-(trifluoromethoxy)phenyl)imidazo[1,2-b]pyridazin-6-amine], for which the negative-log IC50 (pIC50) is 5.30 to 6.00. Still for that read-out and setting: under `FC(F)(F)Oc1cccc(-c2cnc3ccc(NCC4CCSCC4)nn23)c1` [Compound 8-18, N-((tetrahydro-2H-thiopyran-4-yl)methyl)-3-(3-(trifluoromethoxy)phenyl)imidazo[1,2-b]pyridazin-6-amine] stands 5.30 to 6.00. Still for that read-out and setting: under `FC(F)(F)Oc1cccc(-c2cnc3ccc(NCC4CCOCC4)nn23)c1` [Compound 8-19, N-((tetrahydro-2H-pyran-4-yl)methyl)-3-(3-(trifluoromethoxy)phenyl)imidazo[1,2-b]pyridazin-6-amine] stands 7.00 to 8.00; under `CC(C)(O)C(=O)N1CCC(CNc2ccc3ncc(-c4cccc(OC(F)(F)F)c4)n3n2)CC1` [Compound 8-20, 2-Hydroxy-2-methyl-1-(4-(((3-(3-(trifluoromethoxy)phenyl)imidazo[1,2-b]pyridazin-6-yl)amino)methyl)piperidin-1-yl)propan-1-one], 7.00 to 8.00. In the case of `O=C(CN1CCOCC1)N1CCC(CNc2ccc3ncc(-c4cccc(OC(F)(F)F)c4)n3n2)CC1` [Compound 8-21, 2-Morpholino-1-(4-(((3-(3-(trifluoromethoxy)phenyl)imidazo[1,2-b]pyridazin-6-yl)amino)methyl)piperidin-1-yl)ethanone], the pIC50 is 7.00 to 8.00. The same measure, in the same setting: under `O=C1CC(CNc2ccc3ncc(-c4cccc(OC(F)(F)F)c4)n3n2)CCN1` (centres unmarked) [Compound 8-23, 4-(((3-(3-(Trifluoromethoxy)phenyl)imidazo[1,2-b]pyridazin-6-yl)amino)methyl)piperidin-2-one] stands 5.30 to 6.00; under `NCC1CCN(c2ccc3ncc(-c4cccc(OC(F)(F)F)c4)n3n2)C(=O)C1` (centres unmarked) [Compound 8-24, 4-(Aminomethyl)-1-(3-(3-(trifluoromethoxy)phenyl)imidazo[1,2-b]pyridazin-6-yl)piperidin-2-one], 7.00 to 8.00. The same measure, in the same setting: under `N[C@H]1CCCN(c2ccc3ncc(-c4cccc(OC(F)(F)F)c4)n3n2)C1` [Compound 8-25, (S)-1-(3-(3-(Trifluoromethoxy)phenyl)imidazo[1,2-b]pyridazin-6-yl)piperidin-3-amine] stands 7.00 to 8.00. For `OCCN1CCC(CNc2ccc3ncc(-c4cccc(OC(F)(F)F)c4)n3n2)CC1` [Compound 8-27, 2-(4-(((3-(3-(Trifluoromethoxy)phenyl)imidazo[1,2-b]pyridazin-6-yl)amino)methyl)piperidin-1-yl)ethanol], the pIC50 is 7.00 to 8.00. For the compound `C[C@]1(O)CC[C@H](Nc2ccc3ncc(-c4cccc(C(F)(F)F)c4)n3n2)CC1` [Compound 8-30, 1-Methyl-4-((3-(3-(trifluoromethyl)phenyl)imidazo[1,2-b]pyridazin-6-yl)amino)-trans-cyclohexanol], the pIC50 was 7.00 to 8.00.

With `CC(C)(O)[C@H]1CC[C@H](Nc2ccc3ncc(-c4cccc(C(F)(F)F)c4)n3n2)CC1` [Compound 8-31], the pIC50 was > 8.00. The same measure, in the same setting: under `CO[C@H]1CC[C@H](Nc2ccc3ncc(-c4cccc(C(F)(F)F)c4)n3n2)CC1` [Compound 8-32, 4-(trans-Methoxycyclohexyl)-3-(3-(trifluoromethyl)phenyl)imidazo[1,2-b]pyridazin-6-amine] stands 6.00 to 7.00. Same read-out and setting: under `FC(F)(F)c1cccc(-c2cnc3ccc(NC4CCOCC4)nn23)c1` [Compound 8-33, N-(Tetrahydro-2H-pyran-4-yl)-3-(3-(trifluoromethyl)phenyl)imidazo[1,2-b]pyridazin-6-amine] stands 7.00 to 8.00. Consider `O=S1(=O)CCC(CNc2ccc3ncc(-c4cccc(C(F)(F)F)c4)n3n2)CC1` [Compound 8-34, 4-(((3-(3-(Trifluoromethyl)phenyl)imidazo[1,2-b]pyridazin-6-yl)amino)methyl)tetrahydro-2H-thiopyran 1,1-dioxide], for which the pIC50 was 6.00 to 7.00. As for `C[C@]1(O)CC[C@H](Nc2ccc3ncc(-c4cccc(Cl)c4)n3n2)CC1` [Compound 8-36, 4-((3-(3-Chlorophenyl)imidazo[1,2-b]pyridazin-6-yl)amino)-1-methyl-trans-cyclohexanol], the pIC50 is 6.00 to 7.00. `CC(C)(O)[C@H]1CC[C@H](Nc2ccc3ncc(-c4cccc(Cl)c4)n3n2)CC1` [Compound 8-37]: the pIC50 was > 8.00. Still for that read-out and setting: under `CO[C@H]1CC[C@H](Nc2ccc3ncc(-c4cccc(Cl)c4)n3n2)CC1` [Compound 8-38, 3-(3-Chlorophenyl)-N-(4-trans-methoxycyclohexyl)imidazo[1,2-b]pyridazin-6-amine] stands 7.00 to 8.00. On the same count and under the same terms, under `Clc1cccc(-c2cnc3ccc(NC4CCOCC4)nn23)c1` [Compound 8-39] stands > 8.00.

Take `O=S1(=O)CCC(CNc2ccc3ncc(-c4cccc(Cl)c4)n3n2)CC1` [Compound 8-40, 4-(((3-(3-Chlorophenyl)imidazo[1,2-b]pyridazin-6-yl)amino)methyl)tetrahydro-2H-thiopyran 1,1-dioxide]: the pIC50 was 6.00 to 7.00. Still for that read-out and setting: under `CC(C)(O)CCOc1ccc2ncc(-c3cccc(OC(F)(F)F)c3)n2n1` [Compound 8-41, 2-Methyl-4-((3-(3-(Trifluoromethoxy)phenyl)imidazo[1,2-b]pyridazin-6-yl)oxy)butan-2-ol] stands 6.00 to 7.00; under `COCCOc1ccc2ncc(-c3cccc(OC(F)(F)F)c3)n2n1` [Compound 8-42, 6-(2-Methoxyethoxy)-3-(3-(trifluoromethoxy)phenyl)imidazo[1,2-b]pyridazine], 5.30 to 6.00; under `COc1ccc(CNc2ccc3ncc(-c4cccc(OC(F)(F)F)c4)n3n2)cc1` [Compound 8-43, N-(4-Methoxybenzyl)-3-(3-(trifluoromethoxy)phenyl)imidazo[1,2-b]pyridazin-6-amine], 6.00 to 7.00.

In the case of `FC(F)(F)Oc1cccc(-c2cnc3ccc(NCCN4CCOCC4)nn23)c1` [Compound 8-44, N-(2-morpholinoethyl)-3-(3-(trifluoromethoxy)phenyl)imidazo[1,2-b]pyridazin-6-amine], the pIC50 is 7.00 to 8.00.

On to `CN(C)CC(=O)N1CCC(CNc2ccc3ncc(-c4cccc(OC(F)(F)F)c4)n3n2)CC1` [Compound 8-45, 2-(dimethylamino)-1-(4-(((3-(3-(trifluoromethoxy)phenyl)imidazo[1,2-b]pyridazin-6-yl)amino)methyl)piperidin-1-yl)ethanone], for which the negative logarithm of the IC50 (pIC50) was 7.00 to 8.00. Same read-out and setting: under `CC(C)(O)[C@H]1CC[C@H](Nc2ccn3ncc(-c4cccc(OC(F)(F)F)c4)c3n2)CC1` [Compound 8-47] stands 6.00 to 7.00.
